Twelve compounds from US9777002B2, “Inhibitors of the renal outer medullary potassium channel” (Merck Sharp & Dohme Corp., priority 2012, dated 2017) can be followed below.

This assay addresses T1, hROMK (hKir1.1) (Homo sapiens, UniProt P48048).
T1 construct: expressed in transfected cells
T1 sequence (P48048 1-391): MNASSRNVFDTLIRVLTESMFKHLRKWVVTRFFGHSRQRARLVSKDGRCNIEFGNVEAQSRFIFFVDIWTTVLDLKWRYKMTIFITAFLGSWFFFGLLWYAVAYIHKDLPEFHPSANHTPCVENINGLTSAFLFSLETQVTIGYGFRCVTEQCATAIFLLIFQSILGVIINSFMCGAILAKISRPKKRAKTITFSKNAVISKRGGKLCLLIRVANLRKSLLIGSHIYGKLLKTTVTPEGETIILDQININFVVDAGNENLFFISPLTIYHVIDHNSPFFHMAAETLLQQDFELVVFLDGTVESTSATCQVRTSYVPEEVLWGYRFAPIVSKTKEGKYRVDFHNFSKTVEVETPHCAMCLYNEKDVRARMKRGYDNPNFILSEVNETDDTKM
Nature of the assay: Thallium Flux Assay. The format is cell-based. The following applies: HEK293 cells stably expressing hROMK (hKir1.1). How it is done: Cell Culture Conditions—HEK293 cells stably expressing hROMK (hKir1.1) were grown at 37° C. in a 10% CO2 humidified incubator in complete growth media: Dulbecco's Modified Eagle Medium supplemented with non-essential amino acids, Penicillin/Streptomycin/Glutamine, G418 and FBS. At >80% confluency, aspirate the media from the flask and rinse with 10 mL Calcium/Magnesium-free PBS. Add 5 mL of 1× trypsin (prepared in Ca/Mg Free PBS) to T-225 flask and return flask to 37° C./CO2 incubator for 2-3 minutes. To dislodge the cell, gently bang the side of the flask with your hand. Triturate the cells completely and then transfer the cells to 25 mL complete media. Centrifuge at 1,500 rpm for 6 min followed by resuspension in complete growth media and determine cell concentration. For typical re-seeding, 4E6 cells/T-225 flask will attain >80% confluency in 4 days. Under ideal growth conditions and appropriate tissue culture practices, this cell line is stable for 40-45 passages.
FluxOR Kit Components (Invitrogen F10017)
• FluxOR™ Reagent (Component A) • FluxOR™ Assay Buffer (Component B)—10× Concentrate • PowerLoad™ Concentrate (Component C)—100× Concentrate • Probenecid (Component D)—Lyophilized sample is kept at −20° C. Water soluble, 100× after solubilization in 1 mL water. Store at 4° C. • FluxOR™ Chloride-free Buffer (Component E)—5× Concentrate • Potassium sulfate (K2SO4) Concentrate (Component F)—125 mM in water. Store at 4° C. • Thallium sulfate (Tl2SO4) Concentrate (Component G)—50 mM in water. Store at 4° C. • DMSO (dimethyl sulfoxide, Component H)—1 mL (100%) Reagent Preparation: FluxOR Working Solutions • 1000× FluxOR™ Reagent: Reconstitute a vial of component A in 100 μl DMSO; Mix well; Store 10 μl aliquots at −20° C. • 1× FluxOR™ Assay Buffer: Dilute Component B 10-fold with water; Adjust pH to 7.4 with Hepes/NaOH; Filter and store at 4° C. • Probenecid/Assay Buffer: 100 mL of 1× FluxOR™ Assay Buffer; 1 mL of reconstituted component D; Store at 4° C. • Loading Buffer (per microplate): 10 μl 1000× FluxOR™ Reagent; 100 μl component C; 10 mL Probenecid/Assay Buffer • Compound Buffer (per microplate): 20 mL Probenecid/Assay Buffer; 0.3 mM ouabain (10 mM ouabain in water can be stored in amber bottle/aluminum foil at room temperature); Test compound • 1× FluxOR™ Chloride-Free Buffer: Prepare 1× working solution in water. Can be stored at room temperature • Stimulant Buffer (prepared at 5× final concentration in 1× FluxOR™Chloride-Free Buffer): 7.5 mM Thallium sulfate and 0.75 mM Potassium sulfate (to give a final assay concentration of 3 mM Thallium/0.3 mM Potassium). Store at 4° C. when not in use. If kept sterile, this solution is good for months.
Assay Protocol—The ROMK channel functional thallium flux assay is performed in 384 wells, using the FLIPR-Tetra instrument. HEK-hKir1.1 cells are seeded in Poly-D-Lysine microplates and kept in a 37° C.-10% CO2 incubator overnight. On the day of the experiment, the growth media is replaced with the FluxOR™ reagent loading buffer and incubated, protected from light, at ambient temperature (23-25° C.) for 90 min. The loading buffer is replaced with assay buffer± test compound followed by 30 min incubation at ambient temperature, where the Thallium/Potassium stimulant is added to the microplate.
• 1. Seed HEK-hKir1.1 cells (50 μl at 20,000 cells/well) in 384-well PDL coated Microplates • 2. Allow cells to adhere overnight in humidified 37° C./10% CO2 incubator • 3. Completely remove cell growth media from microplate and replace with 25 μl loading buffer • 4. Incubate Microplate at room temperature, protected form light, for 90 min • 5. Remove loading buffer and replace with 25 μl 1× Assay Buffer±test compound. • 6. Incubate microplate at room temperature, protected from light, for 30 min • 7. At FLIPR-Tetra 384: Add stimulant (Thallium/Potassium) solution to microplate and monitor fluorescence. Excitation=400 nm, Emission=460 & 580 nm. Collect data for ˜10 min. […]

pIC50: −log10 of the molar value.

In general, pIC50 refers to the IC50 on a negative log10 scale, so that one unit is a factor of ten. Low values mean a large IC50, high ones a small IC50. `Cc1c([C@@H](O)CN2CC3C(C2)C3NC(=O)c2ccc(C#N)cn2)ccc2c1COC2=O` (stereo partly drawn) [Example 33, 5-Cyano-N-(3-((R)-2-hydroxy-2-(4-methyl-1-oxo-1,3-dihydroisobenzofuran-5-yl)ethyl)-3-azabicyclo[3.1.0]hexan-6-yl)picolinamide] had a negative-log IC50 (pIC50) of 7.22.

In the case of `Cc1c([C@@H](O)CN2CCC(NC(=O)c3ccc(-n4cnnn4)cc3)CC2)ccc2c1COC2=O` [Example 34, (R)-N-(1-(2-Hydroxy-2-(4-methyl-1-oxo-1,3-dihydroisobenzofuran-5-yl)ethyl)piperidin-4-yl)-4-(1H-tetrazol-1-yl)benzamide], the pIC50 is 6.64. This pIC50 is 0.58 log units lower than that of the compound before.

Consider `Cc1c([C@@H](O)CN2CCC(NC(=O)c3ccc(-c4ccon4)cc3)CC2)ccc2c1COC2=O` [Example 35, (R)-N-(1-(2-Hydroxy-2-(4-methyl-1-oxo-1,3-dihydroisobenzofuran-5-yl)ethyl)piperidin-4-yl)-4-(isoxazol-3-yl)benzamide], for which the pIC50 is 7.22.

In the case of `Cc1c([C@@H](O)CN2CCC(NC(=O)c3cccc(-n4cnnn4)c3)CC2)ccc2c1COC2=O` [Example 36, (R)-N-(1-(2-Hydroxy-2-(4-methyl-1-oxo-1,3-dihydroisobenzofuran-5-yl)ethyl)piperidin-4-yl)-3-(1H-tetrazol-1-yl)benzamide], the pIC50 was 6.35.

In the case of `Cc1c([C@@H](O)CN2CCC(NC(=O)c3ccc(-n4cccn4)cc3)CC2)ccc2c1COC2=O` [Example 37, (R)-N-(1-(2-Hydroxy-2-(4-methyl-1-oxo-1,3-dihydroisobenzofuran-5-yl)ethyl)piperidin-4-yl)-4-(1H-pyrazol-1-yl)benzamide], the pIC50 is 7.00.

`Cc1c([C@@H](O)CN2CC[C@@H](NC(=O)c3ccc(C#N)cn3)[C@H](F)C2)ccc2c1COC2=O` [Example 38, 5-Cyano-N-((trans)-3-fluoro-1-((R)-2-hydroxy-2-(4-methyl-1-oxo-1,3-dihydroisobenzofuran-5-yl)ethyl)piperidin-4-yl)picolinamide] gave a pIC50 of 6.00.

`Cc1c([C@@H](O)CN2CCC(NC(=O)c3ccc(-c4cc[nH]n4)cc3)CC2)ccc2c1COC2=O` [Example 39, (R)-N-(1-(2-Hydroxy-2-(4-methyl-1-oxo-1,3-dihydroisobenzofuran-5-yl)ethyl)piperidin-4-yl)-4-(1H-pyrazol-3-yl)benzamide] gave a pIC50 of 6.51. Against the preceding compound, the pIC50 is 0.51 log units higher.

`Cc1nc(C(=O)NC2CCN(C[C@H](O)c3ccc4c(c3C)COC4=O)CC2)ccc1C#N` [Example 41, (R)-5-Cyano-N-(1-(2-hydroxy-2-(4-methyl-1-oxo-1,3-dihydroisobenzofuran-5-yl)ethyl)piperidin-4-yl)-6-methylpicolinamide] showed a pIC50 of 7.15.

As for `Cc1c([C@@H](O)CN2CCC(NC(=O)c3ncc(C#N)c4ccccc34)CC2)ccc2c1COC2=O` [Example 42, (R)-4-Cyano-N-(1-(2-hydroxy-2-(4-methyl-1-oxo-1,3-dihydroisobenzofuran-5-yl)ethyl)piperidin-4-yl)isoquinoline-1-carboxamide], the pIC50 was 7.00. This pIC50 and that of the compound before are within 0.2 log units of each other.

For the compound `Cc1c([C@@H](O)CN2CCC(NC(=O)c3ccc(C#N)cc3F)CC2)ccc2c1COC2=O` [Example 45, (R)-4-Cyano-2-fluoro-N-(1-(2-hydroxy-2-(4-methyl-1-oxo-1,3-dihydroisobenzofuran-5-yl)ethyl)piperidin-4-yl)benzamide], the pIC50 is 6.35.

In turn, `Cc1c([C@@H](O)CN2CCC(NC(=O)c3ccc(-n4cnnn4)nc3)CC2)ccc2c1COC2=O` [Example 49, (R)-N-(1-(2-Hydroxy-2-(4-methyl-1-oxo-1,3-dihydroisobenzofuran-5-yl)ethyl)piperidin-4-yl)-6-(1H-tetrazol-1-yl)nicotinamide] gave a pIC50 of 6.82.

With `Cc1c([C@@H](O)CN2CCC(C)(NC(=O)c3ccc(-n4cnnn4)nc3)CC2)ccc2c1COC2=O` [Example 51, (R)-N-(1-(2-Hydroxy-2-(4-methyl-1-oxo-1,3-dihydroisobenzofuran-5-yl)ethyl)-4-methylpiperidin-4-yl)-6-(1H-tetrazol-1-yl)nicotinamide], the negative-log IC50 (pIC50) is 6.41.
